Reference: patent US8802597B2, “Herbicidal pyrimidines” (E I du Pont de Nemours and Company, priority 2003, dated 2014)

How the values were obtained:
Format in all cases: in vivo
[1] = tested on: blackgrass (Alopecurus myosuroides); test: Test B postemergence
Method in brief: (§1)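 Under greenhouse conditions, seeded pots and young plants (1- to 4-leaf, 2 to 18 cm) were treated at the same time with test chemicals in a non-phytotoxic solvent mixture containing surfactant. Response was assessed visually after 13 to 15 days, from 0 (no effect) to 100 (complete control).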

[2] = tested on: wild oat (Avena fatua); test: Test B postemergence
Method in brief: as §1

[3] = tested on: giant foxtail (Setaria faberii); test: Test B pre/postemergence
Method in brief: as §1

[4] = tested on: pigweed (Amaranthus retroflexus); test: Test B pre/postemergence
Method in brief: as §1

[5] = tested on: morningglory (Ipomoea coccinea); test: Test B pre/postemergence
Method in brief: as §1

[6] = tested on: velvetleaf (Abutilon theophrasti); test: Test B pre/postemergence
Method in brief: as §1

[7] = tested on: cocklebur (Xanthium strumarium); test: Test B pre/postemergence
Method in brief: as §1

[8] = tested on: lambsquarters (Chenopodium album); test: Test B pre/postemergence
Method in brief: as §1

[9] = tested on: crabgrass (Digitaria sanguinalis); test: Test B pre/postemergence
Method in brief: as §1

[10] = tested on: Surinam grass (Brachiaria decumbens); test: Test B pre/postemergence
Method in brief: as §1

[11] = tested on: wheat (Triticum aestivum); test: Test B pre/postemergence
Method in brief: as §1

[12] = tested on: barnyardgrass (Echinochloa crus-galli); test: Test B pre/postemergence
Method in brief: as §1

[13] = tested on: corn (Zea mays); test: Test B pre/postemergence
Method in brief: as §1

[14] = tested on: duck salad (Heteranthera limosa); test: Test B flooded paddy test; settings: Flood, 1000 g ai/ha; scale 0 to 100
Method in brief: (§2)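 Visual injury scoring (0 = no effect, 100 = complete control) versus controls made 13 to 15 days after treatment in the greenhouse. Test species were grown in flooded paddy to the 2-leaf stage: rice, barnyardgrass, umbrella sedge, duck salad.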

[15] = tested on: umbrella sedge (Cyperus difformis); test: Test B flooded paddy test; settings: Flood, 1000 g ai/ha; scale 0 to 100
Method in brief: as §2

[16] = tested on: barnyardgrass (Echinochloa crus-galli); test: Test B flooded paddy test; settings: Flood, 1000 g ai/ha; scale 0 (no effect) to 100 (complete control)
Method in brief: as §2

[17] = tested on: rice (Oryza sativa); test: Test B flooded paddy test; settings: Flood, 1000 g ai/ha; scale 0 to 100
Method in brief: as §2

[18] = tested on: duck salad (Heteranthera limosa); test: Test C flooded paddy test; settings: Flood, scale 0 to 100
Experimental: (§3) At the same time, plants selected from these crop and weed species and also winter barley (Hordeum vulgare), blackgrass (Alopecurus myosuroides), canarygrass (Phalaris minor), chickweed (Stellaria media), downy brome (Bromus tectorum), green foxtail (Setaria viridis), Italian ryegrass (Lolium multiflorum), wheat (Triticum aestivum), wild oat (Avena fatua) and windgrass (Apera spica-venti) were treated with postemergence applications of some of the test chemicals formulated in the same manner. Plants ranged in height from 2 to 18 cm (1- to 4-leaf stage) for postemergence treatments. Plant species in the flooded paddy test consisted of rice (Oryza sativa), umbrella sedge (Cyperus difformis), duck salad (Heteranthera limosa) and barnyardgrass (Echinochloa crus-galli) grown to the 2-leaf stage for testing. Treated plants and controls were maintained in a greenhouse for 12 to 14 days, after which time all species were compared to controls and visually evaluated. Plant response ratings, summarized in Table C, are based on a scale of 0 to 100 where 0 is no effect and 100 is complete control. A dash (-) response means no test result.

[19] = tested on: umbrella sedge (Cyperus difformis); test: Test C flooded paddy test; settings: Flood, scale 0 to 100
Experimental: as §3

[20] = tested on: barnyardgrass (Echinochloa crus-galli); test: Test C flooded paddy test; settings: Flood
Experimental: as §3

[21] = tested on: rice (Oryza sativa); test: Test C flooded paddy test; settings: Flood, scale 0 to 100
Experimental: as §3

[22] = 125 g ai/ha, scale 0 to 100 (0 no effect, 100 complete control)
[23] = Postemergence, 125 g ai/ha, scale 0 to 100 (0 no effect, 100 complete control)
[24] = Postemergence, 500 g ai/ha, scale 0 to 100
[25] = Preemergence, 125 g ai/ha, scale 0 to 100 (0 no effect, 100 complete control)
[26] = Preemergence, 500 g ai/ha, scale 0 to 100 (0 no effect, 100 complete control)

CC(C)OC(=O)c1nc(C2CC2)nc(N)c1Br [Compound 14]
Blackgrass plant response rating [1, 22]: 30 | Plant response rating, Blackgrass ([1]; 500 g ai/ha, scale 0 to 100): 60 | Oat, Wild plant response rating [2, 22]: 20 | Plant response rating, Oat, Wild ([2]; 500 g ai/ha, scale 0 to 100): 70 | Foxtail, Giant plant response rating [3, 23]: 20 | Plant response rating, Foxtail, Giant [3, 24]: 50 | Plant response rating, Foxtail, Giant [3, 25]: 30 | Foxtail, Giant plant response rating [3, 26]: 80 | Pigweed plant response rating [4, 23]: 80 | Plant response rating, Pigweed [4, 24]: 90 | Plant response rating, Pigweed [4, 25]: 80 | Pigweed plant response rating [4, 26]: 90 | Morningglory plant response rating [5, 23]: 100 | Plant response rating, Morningglory [5, 24]: 100 | Plant response rating, Morningglory [5, 25]: 70 | Morningglory plant response rating [5, 26]: 100 | Velvetleaf plant response rating [6, 23]: 50 | Plant response rating, Velvetleaf [6, 24]: 70 | Plant response rating, Velvetleaf [6, 25]: 60 | Velvetleaf plant response rating [6, 26]: 80 | Cocklebur plant response rating [7, 23]: 50 | Plant response rating, Cocklebur [7, 24]: 70 | Plant response rating, Cocklebur [7, 25]: 60 | Cocklebur plant response rating [7, 26]: 80 | Lambsquarters plant response rating [8, 23]: 100 | Plant response rating, Lambsquarters [8, 24]: 100 | Plant response rating, Lambsquarters [8, 25]: 90 | Lambsquarters plant response rating [8, 26]: 100 | Crabgrass plant response rating [9, 23]: 10 | Plant response rating, Crabgrass [9, 24]: 30 | Plant response rating, Crabgrass [9, 25]: 10 | Crabgrass plant response rating [9, 26]: 80 | Surinam Grass plant response rating [10, 23]: 10 | Plant response rating, Surinam Grass [10, 24]: 50 | Plant response rating, Surinam Grass [10, 25]: 40 | Surinam Grass plant response rating [10, 26]: 80 | Wheat plant response rating [11, 23]: 20 | Plant response rating, Wheat [11, 24]: 50 | Plant response rating, Wheat [11, 25]: 40 | Wheat plant response rating [11, 26]: 50 | Barnyardgrass plant response rating [12, 23]: 30 | Plant response rating, Barnyardgrass [12, 24]: 90 | Plant response rating, Barnyardgrass [12, 25]: 10 | Barnyardgrass plant response rating [12, 26]: 80 | Corn plant response rating [13, 23]: 30 | Plant response rating, Corn [13, 24]: 70 | Plant response rating, Corn [13, 25]: 0 | Corn plant response rating [13, 26]: 70 | Plant response rating, Ducksalad [14]: 80 | Plant response rating, Sedge, Umbrella [15]: 50 | Plant response rating, Barnyardgrass [16]: 80 | Plant response rating, Rice [17]: 20 | Plant response rating, Ducksalad ([18]; 62 g ai/ha): 0 | Plant response rating, Ducksalad ([18]; 125 g ai/ha): 40 | Plant response rating, Ducksalad ([18]; 250 g ai/ha): 45 | Plant response rating, Ducksalad ([18]; 500 g ai/ha): 55 | Plant response rating, Sedge, Umbrella ([19]; 62 g ai/ha): 0 | Plant response rating, Sedge, Umbrella ([19]; 125 g ai/ha): 0 | Plant response rating, Sedge, Umbrella ([19]; 250 g ai/ha): 0 | Plant response rating, Sedge, Umbrella ([19]; 500 g ai/ha): 30 | Plant response rating, Barnyardgrass ([20]; 62 g ai/ha, scale 0 to 100): 0 | Plant response rating, Barnyardgrass ([20]; 125 g ai/ha, scale 0 to 100): 0 | Plant response rating, Barnyardgrass ([20]; 250 g ai/ha, scale 0 to 100): 0 | Plant response rating, Barnyardgrass ([20]; 500 g ai/ha, scale 0 to 100 (0 no effect, 100 complete control)): 45 | Plant response rating, Rice ([21]; 62 g ai/ha): 0 | Plant response rating, Rice ([21]; 125 g ai/ha): 0 | Plant response rating, Rice ([21]; 250 g ai/ha): 0 | Plant response rating, Rice ([21]; 500 g ai/ha): 0
